Data on two compounds can be found in US20030224469A1, “Methods and kits for assays utilizing fluorescence polarization” (priority 2002, published 2003).

Usually IC50 stands for the concentration at which inhibition is half-maximal. Low values mean higher potency, high ones lower potency.

Where two headings read alike, the source gives them in different places.

The target of assay [1] is T1, T-Cell Protein Tyrosine Phosphatase (TC PTP) (Homo sapiens, UniProt P17706).
T1 construct: purchased New England Biolabs
T1 sequence (P17706 1-317 limits assumed): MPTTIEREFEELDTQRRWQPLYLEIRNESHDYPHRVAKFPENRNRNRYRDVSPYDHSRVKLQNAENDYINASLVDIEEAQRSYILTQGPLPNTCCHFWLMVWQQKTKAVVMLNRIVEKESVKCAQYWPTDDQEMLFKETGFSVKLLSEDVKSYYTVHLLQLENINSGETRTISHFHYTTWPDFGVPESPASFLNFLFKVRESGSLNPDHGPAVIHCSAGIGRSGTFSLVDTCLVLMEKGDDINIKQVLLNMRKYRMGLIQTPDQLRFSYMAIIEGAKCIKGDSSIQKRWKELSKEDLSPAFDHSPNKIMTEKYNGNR
In words: FP-based protein tyrosine phosphatase assay (dual color). It is filed as biochemical. As for the experimental part:
The enzymatic activity of T-Cell Protein Tyrosine Phosphatase (TC PTP) was measured in a dose-dependent manner by incubating different concentrations of TC PTP (New England Biolabs; Beverly, Mass.), from 0.05 U/μL to 0.0005 U/μL, with 50 μL of a mixture of an anti-phosphotyrosine antibody, a fluorescein-labeled phosphopeptide and a tetramethylrhodamine-labeled phosphopeptides. The final reaction volume was […]. Two control assays were performed. […] Fluorescence polarization measurements were performed using the appropriate excitation and emission filters appropriate for each fluorophore. Increasing concentrations of TC PTP result in an increased rate of dephosphorylation of the labeled phosphopeptides, which is indicated by a decrease in polarization (due to the inability of the dephosphorylated peptide to bind to the antibody).
In a black, 96-well plate (DYNEX; Chantilly, Va.), Na3VO4 (Sigma; St. Louis, Mo.) was serially diluted 2-fold into 24 wells from a starting concentration of 500 nM in a volume of 50 μL. TC PTP was then added to each well so that the final concentration of the enzyme would be 0.005 U/μL per assay. […] At the end of the incubation, 10 μL of 550 μM Na3VO4 was added to quench all of the reactions, and the polarization for each sample was measured on a TECAN Polarion using the appropriate excitation and emission filters appropriate for each fluorophore. […]

Assay [2] concerns the target glucocorticoid receptor (GR) (Homo sapiens, UniProt P04150). As for the experimental part: A non-labeled steroid (dexamethasone) was serially diluted in 10 mM potassium phosphate pH 7.4,20 mM Na2MoO4, 2% DMSO, 0.1 mM EDTA, 0.5 mM DTT buffer containing 0.1 mM stabilizing peptide. This steroid was used as a competitive binder to glucocorticoid receptor (GR). […] Control wells were also prepared without either unconjugated fluorescein or TMR present. As in Examples 1 and 2, two separate fluorescence polarization values were obtained for each sample using a green filter or a red filter.

Chain of glucocorticoid receptor (GR) (P04150 whole entry, species assumed): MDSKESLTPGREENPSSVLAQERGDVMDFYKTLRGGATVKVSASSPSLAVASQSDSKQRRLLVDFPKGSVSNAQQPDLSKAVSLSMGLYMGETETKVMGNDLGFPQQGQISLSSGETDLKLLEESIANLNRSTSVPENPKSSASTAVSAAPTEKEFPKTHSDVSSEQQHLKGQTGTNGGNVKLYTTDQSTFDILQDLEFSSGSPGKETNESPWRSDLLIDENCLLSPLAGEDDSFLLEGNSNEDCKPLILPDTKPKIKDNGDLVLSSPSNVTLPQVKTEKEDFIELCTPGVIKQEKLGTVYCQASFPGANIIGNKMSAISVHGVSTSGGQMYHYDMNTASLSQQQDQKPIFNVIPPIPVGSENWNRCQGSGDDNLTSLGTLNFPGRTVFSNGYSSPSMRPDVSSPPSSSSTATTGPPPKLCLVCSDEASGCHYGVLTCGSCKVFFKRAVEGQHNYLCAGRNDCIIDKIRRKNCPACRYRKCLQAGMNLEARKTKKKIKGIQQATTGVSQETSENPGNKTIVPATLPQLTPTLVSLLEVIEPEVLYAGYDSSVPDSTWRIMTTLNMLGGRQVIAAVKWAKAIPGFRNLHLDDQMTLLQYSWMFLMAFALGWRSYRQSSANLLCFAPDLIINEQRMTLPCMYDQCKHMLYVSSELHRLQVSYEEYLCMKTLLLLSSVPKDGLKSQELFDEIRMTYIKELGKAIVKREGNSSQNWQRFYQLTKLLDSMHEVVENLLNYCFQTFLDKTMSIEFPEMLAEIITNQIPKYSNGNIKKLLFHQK

`[Na+].[Na+].[Na+].[O]=[V]([O-])([O-])[O-]` [Na3VO4]: in assay [1] (50 μM Na3VO4), the “inhibition of TC PTP-dependent change in polarization” value is on record as “completely inhibited”. The compound also yielded an IC50 in assay [1] (TC PTP 0.005 U/μL, 15 minutes incubation, nonlinear regression of semi-log plot) of 4 nM.

Regarding dexamethasone [steroid competitor], the fluorescence polarization entry in assay [2] (high concentrations of steroid competitor) is given as “about 60 mP”; in assay [2] (low concentration of competitor) it was approximately 260 mP.
